Test results: patent publication US8895535B2, “Pyrrolidinones as MetAP-2 inhibitors” (Merck Patent GmbH, priority 2010, dated 2014)

These compounds were tested against MetAP-2 (Homo sapiens, UniProt P50579) (assay: MetAP-2 activity measurement (coupled enzymatic reactions, substrate Met-Arg-Ser)). Details: Inhibition of MetAP-2; read-out: IC50 enzyme.
Assay type: biochemical
Protocol: MetAP-2 Activity Measurement
The MetAP-2 activity is determined by coupling enzymatic reactions. The tripeptide Met-Arg-Ser (MAS) is employed as substrate. The methionine liberated is firstly converted into Metox and H2O2 by L-aminooxidase (AAO).
MetAP-2 activity can be recorded continuously as kinetics. The reaction scheme illustrates that one mol of dianisidineox is formed per mol of methionene. The MetAP-2 enzyme activity can therefore be calculated directly as Δ absorption per time unit. […] of the MetAP-2 activity (mol of Met/time unit) is possible with the aid of the dianisidineox extinction coefficient.
The change in extinction per time unit is depicted graphically and a slope calculation is carried out in the visually linear region of the reaction.

Chain of MetAP-2 (P50579 whole entry, species assumed): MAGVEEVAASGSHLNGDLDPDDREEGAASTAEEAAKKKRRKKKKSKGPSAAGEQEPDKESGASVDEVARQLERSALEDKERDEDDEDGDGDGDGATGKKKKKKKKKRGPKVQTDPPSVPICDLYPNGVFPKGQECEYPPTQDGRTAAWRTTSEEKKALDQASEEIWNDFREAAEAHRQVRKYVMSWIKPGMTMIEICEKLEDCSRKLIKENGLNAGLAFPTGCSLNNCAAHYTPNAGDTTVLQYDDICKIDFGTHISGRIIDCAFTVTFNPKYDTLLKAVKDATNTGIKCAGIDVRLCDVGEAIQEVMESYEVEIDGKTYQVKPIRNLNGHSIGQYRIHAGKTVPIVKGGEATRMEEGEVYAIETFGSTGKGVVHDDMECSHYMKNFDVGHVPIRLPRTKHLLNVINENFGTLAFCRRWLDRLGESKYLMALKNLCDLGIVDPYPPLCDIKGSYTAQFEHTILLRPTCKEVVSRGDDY

Row | Compound | IC50 [nM]
1 | O=C(NCCCN1CCOCC1)[C@@]1(O)CCN(c2ccccc2)C1=O [A292] | > 10000
2 | O=C(N1CCOCC1)[C@@]1(O)CCN(c2ccccc2)C1=O [A300] | > 10000
3 | CCN(Cc1ccccc1)C(=O)[C@@]1(O)CCN(c2ccccc2)C1=O [A303] | > 10000
4 | O=C(N1CCCCC1)[C@@]1(O)CCN(c2ccccc2)C1=O [A308] | > 10000
5 | CN(Cc1ccsc1)C(=O)[C@@]1(O)CCN(c2ccccc2)C1=O [A321] | > 10000
6 | CN(C(=O)[C@@]1(O)CCN(c2ccccc2)C1=O)C1CCCC1 [A323] | 1000 to 10000
7 | CC(C)C(C)NC(=O)[C@@]1(O)CCN(c2ccccc2)C1=O (stereo partly drawn) [A326] | 1000 to 10000
8 | CCCOCCNC(=O)[C@@]1(O)CCN(c2ccccc2)C1=O [A329] | 1000 to 10000
9 | O=C(NCc1ccc(C(F)(F)F)cc1)[C@@]1(O)CCN(c2ccccc2)C1=O [A333] | > 10000

Results, then the compound that gave them:

Row | IC50 [nM] | Compound
10 | 10 to 1000 | CNC(=O)Cn1ccc2cc(N3CC[C@](O)(C(=O)NCc4cc(F)cc(Cl)c4)C3=O)ccc21 [A287]
11 | 10 to 1000 | C#CC(NC(=O)[C@@]1(O)CCN(c2ccccc2)C1=O)c1ccccc1 (stereo partly drawn) [A288]
12 | 10 to 1000 | CCNC(=O)N1CCc2cc(N3CC[C@](O)(C(=O)NCc4cc(F)cc(Cl)c4)C3=O)ccc21 [A290]
13 | 1000 to 10000 | O=C(NCc1ccc2c(c1)OCO2)[C@@]1(O)CCN(c2ccccc2)C1=O [A295]
14 | 1000 to 10000 | CCCC(C)NC(=O)[C@@]1(O)CCN(c2ccccc2)C1=O (stereo partly drawn) [A298]
15 | 1000 to 10000 | CC(C)OCCCNC(=O)[C@@]1(O)CCN(c2ccccc2)C1=O [A301]
16 | 10 to 1000 | O=C(NCc1ccccc1C(F)(F)F)[C@@]1(O)CCN(c2ccccc2)C1=O [A302]
17 | 1000 to 10000 | CC(C)CNC(=O)[C@@]1(O)CCN(c2ccccc2)C1=O [A305]
18 | 10 to 1000 | CCCCNC(=O)[C@@]1(O)CCN(c2ccccc2)C1=O [A310]
19 | 1000 to 10000 | CC1CCN(C(=O)[C@@]2(O)CCN(c3ccccc3)C2=O)CC1 [A316]
20 | 10 to 1000 | O=C(NC1COc2ccccc2C1)[C@@]1(O)CCN(c2ccccc2)C1=O (stereo partly drawn) [A320]
21 | 10 to 1000 | O=C(NCC1CCCCC1)[C@@]1(O)CCN(c2ccccc2)C1=O [A324]
